Read-outs that look alike come from different tables or passages of the source.
Columns and labels:
Assay in all cases: whole plant or invertebrate
Assay type in all cases: in vivo
Plutella xylostella = details: for mortality at 500 ppm: Plutella xylostella, read-out: Plutella xylostella Mortality (%) 500 ppm
Summary of the method: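 Cabbage leaf discs dipped 5 s in compound at 500 ppm (0.05% Tween-80 aqueous), air-dried, fed to about 35 2nd-instar larvae at 28° C., triplicate. Dead larvae counted after 24 h; mortality (%) corrected against Tween-80 control.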

Spodoptera exigua = details: for mortality at 500 ppm: Spodoptera exigua, 24 h, read-out: Spodoptera exigua Mortality (%) 500 ppm
Summary of the method: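 Cabbage leaf discs dipped 5 s in 500 ppm compound (0.05% Tween-80 aqueous), air-dried, fed to about 35 2nd-instar larvae at 28° C, three replicates. Deaths counted at 24 h; mortality corrected against Tween-80 control.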

Aphis craccivora = details: for Aphis craccivora Mortality (%): immersion 5 seconds, counted after 24 hours; for mortality at 500 ppm: Aphis craccivora, 24 h, read-out: Aphis craccivora Mortality (%) 500 ppm
Summary of the method: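 Wingless adults feeding on bean sprouts were dipped with the sprouts for 5 s in 500 ppm compound in aqueous 0.05% Tween-80, air-dried, then held at 23° C. Dead aphids counted after 24 h, triplicate, with 0.05% Tween-80 as control. Mortality (%) = (control live − treated live)/control live × 100.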

Solenopsis invicta = details: for mortality at 100 ppm: Solenopsis invicta
Summary of the method: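 Fire ants fed compound by water test-tube poison-feeding at 100 ppm in aqueous 0.05% Tween-80/5% honey (from 10 g/L DMSO stock), kept at 25 °C. Live and dead ants counted at 24 and 72 h; mortality (%) calculated relative to live ants in the untreated control.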

[1] = 500 ppm, 2nd-instar larvae, leaf immersion feeding
[2] = 100 ppm, 24 h, water test tube poison-feeding
[3] = 100 ppm, 72 h, water test tube poison-feeding
[4] = 24 h, read-out: Solenopsis invicta Mortality (%) 100 ppm 24 h, 100 ppm, 24 h, water test tube poison-feeding
[5] = 72 h, read-out: Solenopsis invicta Mortality (%) 100 ppm 72 h, 100 ppm, 72 h, water test tube poison-feeding
[6] = 500 ppm, 2nd-instar larvae, leaf immersion feeding, 24 hours
[7] = 500 ppm, wingless adults, impregnation method, 24 hours

| Structure (SMILES) | Plutella xylostella Mortality (%) (Plutella xylostella; [1]) | Spodoptera exigua Mortality (%) (Spodoptera exigua; [1]) | Aphis craccivora Mortality (%) (Aphis craccivora; 500 ppm, wingless adults) | Solenopsis invicta Mortality (%) 24 h (Solenopsis invicta; [2]) | Solenopsis invicta Mortality (%) 72 h (Solenopsis invicta; [3]) | further results |
| --- | --- | --- | --- | --- | --- | --- |
| COC(=O)CC1(C(=O)C(F)(F)F)Nc2c([S+]([O-])C(F)(F)F)c(C#N)nn2-c2c(Cl)cc(C(F)(F)F)cc21 (stereo not drawn) [d-54] | 100% | 99% | 100% | 21% | 99% |  |
| C=CC1(C(F)(F)F)Nc2c(Br)c(C#N)nn2-c2c(Cl)cc(C(F)(F)F)cc21 (stereo not drawn) [Compound C7] |  |  |  |  |  | mortality at 500 ppm (Plutella xylostella): 100%; mortality at 500 ppm (Spodoptera exigua): 100%; mortality at 500 ppm (Aphis craccivora): 100%; mortality at 100 ppm (Solenopsis invicta; [4]): 38%; mortality at 100 ppm (Solenopsis invicta; [5]): 100% |
| CCOC(=O)CC1(C(=O)OCC)Nc2c([S+]([O-])C(F)(F)F)c(C#N)nn2-c2ncc(C(F)(F)F)cc21 (stereo not drawn) [a-22] |  |  |  |  |  | Plutella xylostella Mortality (%) 500 ppm (Plutella xylostella; [1]): 100%; Spodoptera exigua Mortality (%) 500 ppm (Spodoptera exigua; [6]): 100%; Aphis craccivora Mortality (%) 500 ppm (Aphis craccivora; [7]): 100%; Solenopsis invicta Mortality (%) 100 ppm 24 h (Solenopsis invicta; [2]): 30%; Solenopsis invicta Mortality (%) 100 ppm 72 h (Solenopsis invicta; [3]): 100% |
| COC(=O)CC1Nc2c(OC(F)(F)F)c(C#N)nn2-c2cncc(Cl)c21 (stereo not drawn) [b-111] | 100% | 100% | 100% | 24% | 100% |  |
| COC(=O)CC1(C(=O)OC)Nc2c([S+]([O-])C(F)(F)F)c(C#N)nn2-c2c1ccc(Cl)c2C(F)(F)F (stereo not drawn) [e-13] | 100% | 100% | 100% | 20% | 100% |  |
| CSc1nn2c(c1C(=O)N(C)C)NC(F)(C(F)(F)F)c1ccccc1-2 (stereo not drawn) [Compound A29] |  |  |  |  |  | mortality at 500 ppm (Plutella xylostella): 100%; mortality at 500 ppm (Spodoptera exigua): 100%; mortality at 500 ppm (Aphis craccivora): 100%; mortality at 100 ppm (Solenopsis invicta; [4]): 26%; mortality at 100 ppm (Solenopsis invicta; [5]): 95% |
| N#CCC1(Cl)Nc2c([S+]([O-])C(F)(F)F)c(C#N)nn2-c2c(Cl)cc(C(F)(F)F)cc21 (stereo not drawn) [d-60] | 96% | 90% | 90% | 24% | 90% |  |
| COC(=O)CC1(C(=O)OC)Nc2c([S+]([O-])C(F)(F)F)c(C#N)nn2-c2cc(C(F)(F)F)cc(Cl)c21 (racemic) [c-8] | 100% | 100% | 100% | 20% | 100% |  |
| COC(=O)C(C)C1Nc2c(OC(F)(F)F)c(C#N)nn2-c2c(Cl)cc(C(F)(F)F)cc21 (stereo not drawn) [d-122] | 91% | 84% | 90% | 24% | 95% |  |
| CC(=O)c1nn2c(c1[S+](C)[O-])NC(CC(=O)O)(C(=O)O)c1cc(C(F)(F)F)cc(Cl)c1-2 (stereo not drawn) [Compound C47] |  |  |  |  |  | mortality at 500 ppm (Plutella xylostella): 77%; mortality at 500 ppm (Spodoptera exigua): 86%; mortality at 500 ppm (Aphis craccivora): 80%; mortality at 100 ppm (Solenopsis invicta; [4]): 27%; mortality at 100 ppm (Solenopsis invicta; [5]): 87% |
| CC(=O)CC1(C(C)=O)Nc2c([S+]([O-])C(F)(F)F)c(C#N)nn2-c2c(Cl)cc(C(F)(F)F)cc21 (stereo not drawn) [d-46] | 95% | 90% | 100% | 14% | 90% |  |
| N#Cc1nn2c(c1OC(F)(F)F)NC(C#N)c1c(Cl)cncc1-2 (stereo not drawn) [b-118] | 99% | 91% | 100% | 14% | 99% |  |
| CCOC(=O)C1(CC(=O)OC)Nc2c([S+]([O-])C(F)(F)F)c(C#N)nn2-c2c(C(F)(F)F)ccc(Cl)c21 (stereo not drawn) [e-6] | 100% | 100% | 100% | 34% | 100% |  |
| N#Cc1nn2c(c1[S+]([O-])C(F)(F)F)NC(C#N)(CC(=O)C(F)(F)F)c1cc(C(F)(F)F)cnc1-2 (stereo not drawn) [a-57] |  |  |  |  |  | Plutella xylostella Mortality (%) 500 ppm (Plutella xylostella; [1]): 100%; Spodoptera exigua Mortality (%) 500 ppm (Spodoptera exigua; [6]): 100%; Aphis craccivora Mortality (%) 500 ppm (Aphis craccivora; [7]): 100%; Solenopsis invicta Mortality (%) 100 ppm 24 h (Solenopsis invicta; [2]): 24%; Solenopsis invicta Mortality (%) 100 ppm 72 h (Solenopsis invicta; [3]): 100% |
| [O-][S+](c1c(C(F)(F)F)nn2c1NC(Br)c1cc(C(F)(F)F)cc(Cl)c1-2)C(F)(F)F (stereo not drawn) [d-114] | 100% | 87% | 100% | 24% | 90% |  |
| N#Cc1cnn2c1NC(N)(CN)c1ccc(Cl)cc1-2 (stereo not drawn) [Compound A24] |  |  |  |  |  | Plutella xylostella Mortality (%) 500 ppm (Plutella xylostella; in vivo): 100%; Spodoptera exigua Mortality (%) 500 ppm (Spodoptera exigua; in vivo): 100%; Aphis craccivora Mortality (%) 500 ppm (Aphis craccivora; in vivo): 100%; Solenopsis invicta Mortality (%) 100 ppm 24 h (Solenopsis invicta; in vivo): 44%; Solenopsis invicta Mortality (%) 100 ppm 72 h (Solenopsis invicta; in vivo): 100% |
| COC(=O)CC1(C(=O)OC)Nc2c([S+](C)[O-])c(C(C)=O)nn2-c2c(Cl)cc(C(F)(F)F)cc21 (stereo not drawn) [Compound C48] |  |  |  |  |  | mortality at 500 ppm (Plutella xylostella): 76%; mortality at 500 ppm (Spodoptera exigua): 85%; mortality at 500 ppm (Aphis craccivora): 79%; mortality at 100 ppm (Solenopsis invicta; [4]): 26%; mortality at 100 ppm (Solenopsis invicta; [5]): 86% |
| COC(=O)CC1(C(=O)OC)Nc2c([S+]([O-])C(F)(F)F)c(C#N)nn2-c2cncc(Cl)c21 (stereo not drawn) [b-1] | 100% | 100% | 100% | 20% | 97% |  |
| CC(=O)c1nn2c(c1[S+](C)[O-])NC(CO)(CC#N)c1cc(C(F)(F)F)cc(Cl)c1-2 (stereo not drawn) [Compound C27] |  |  |  |  |  | mortality at 500 ppm (Plutella xylostella): 76%; mortality at 500 ppm (Spodoptera exigua): 86%; mortality at 500 ppm (Aphis craccivora): 100%; mortality at 100 ppm (Solenopsis invicta; [4]): 27%; mortality at 100 ppm (Solenopsis invicta; [5]): 86% |
| CCSc1c(C#N)nn2c1NC(C)(C)c1ccccc1-2 [Compound A9] |  |  |  |  |  | mortality at 500 ppm (Plutella xylostella): 100%; mortality at 500 ppm (Spodoptera exigua): 100%; mortality at 500 ppm (Aphis craccivora): 100%; mortality at 100 ppm (Solenopsis invicta; [4]): 24%; mortality at 100 ppm (Solenopsis invicta; [5]): 100% |
| N#Cc1nn2c(c1[S+]([O-])C(F)(F)F)NC(Cc1ccccc1)(C(=O)C(F)(F)F)c1cc(C(F)(F)F)cc(Cl)c1-2 (stereo not drawn) [d-52] | 100% | 100% | 100% | 24% | 100% |  |
| N#Cc1nn2c(c1[S+]([O-])C(F)(F)F)NC(CCCl)(C(=O)C(F)(F)F)c1c(Cl)cc(C(F)(F)F)cc1-2 (stereo not drawn) [c-42] | 86% | 80% | 100% | 20% | 97% |  |
| COC(=O)CC1(C(=O)OC)Nc2c([S+]([O-])C(F)(F)F)c(C#N)nn2-c2ccc(C(F)(F)F)c(Cl)c21 (stereo not drawn) [e-7] | 100% | 100% | 100% | 29% | 99% |  |
| COC(=O)/C=C/C1(CC#N)Nc2c([S+](C)[O-])c(C(C)=O)nn2-c2c(Cl)cc(C(F)(F)F)cc21 (stereo not drawn) [Compound C60] |  |  |  |  |  | mortality at 500 ppm (Plutella xylostella): 90%; mortality at 500 ppm (Spodoptera exigua): 92%; mortality at 500 ppm (Aphis craccivora): 100%; mortality at 100 ppm (Solenopsis invicta; [4]): 25%; mortality at 100 ppm (Solenopsis invicta; [5]): 92% |

— patent publication US11401271B2, “Fused heterocyclic compound, pyrazole-ring-containing fused heterocyclic compound, agricultural composition containing thereof, and method of using the composition” (SOUTH CHINA AGRICULTURAL UNIVERSITY, priority 2017, dated 2022)
